# In patent US4250259A, “Microbiological production of ketones from C3 -C6 secondary alcohols” (priority 1979, dated 1981):
# Entries after “also recorded” stand apart in the source; their conditions may differ.
# Columns and labels:
# [1] = test system: purified secondary alcohol dehydrogenase; test: inhibition of purified yeast SADH; format: biochemical, Pichia sp. NRRL Y-11,328; conditions: primary alcohols tested at 10^-3 M
# Experimental: Large scale cultures of Pichia sp. NRRL Y-11,328 were grown with aeration at 30° C. in a 14-liter New Brunswick f fermentor in a mineral salt medium containing methanol (0.4%, v/v) as the sole carbon source. The cells (200 g., wet weight) were suspended in […] sodium phosphate buffer, pH 7.0, containing 1 mM dithiothreitol (buffer A), and crude extracts were prepared as described previously. To the crude extracts, 18 ml. of protamine sulfate solution [2% solution in 0.1 M tris (hydroxymethyl) aminomethane (tris) base] was added dropwise with continuous stirring. After standing for 30 min., the extracts were centrifuged at 20,000× g. for 60 min. The supernatant solution was fractionated with solid ammonium sulfate. Extracts were brought to 50% of saturation with respect to ammonium sulfate by addition of 313 g. of the salt per liter of extract. Precipitated proteins was removed by centrifugation, and 137 g. of ammonium sulfate was added per liter of the supernatant liquid to bring it to 70% of saturation. Material precipitating between 50 and 70% of saturation was collected by centrifugation and dissolved in buffer A. This preparation was dialyzed overnight against buffer A, and the dialyzed material was applied to a DEAE-cellulose column (5×40 cm) that had been equilibrated with buffer A. The sample was washed with 200 ml. of buffer A and eluted with 2 liters of buffer A that contained NaCl in a linear gradient running from a concentration of 0 to 0.5 M. Fractions of 15 ml. were collected. Fractions containing secondary alcohol dehydrogenase activity were pooled and were termed DEAE-cellulose eluate. The DEAE-cellulose eluate was concentrated by ammonium sulfate fractionation.
# Secondary alcohol dehydrogenase activity was measured spectrophotometrically at 340 nm with a NAD^+ as an electron acceptor. The reaction mixture, in a total 3.0 ml., contained 50 mM phosphate buffer, pH 8.0, 5 μmoles NAD^+, crude extracts, and substrate. The reactions were started by addition of 100 μl of 0.1 M substrate and the rate of NAD^+ reduction was measured. Protein concentration was determined by the method of Lowry et al.
# Various primary alcohols not oxidized by secondary alcohol dehydrogenase were tested as potential inhibitors of enzyme activity.
# [2] = test system: cell suspensions of C1-utilizers; test: studies on production of 2-butanone from 2-butanol by cell suspensions of the strains tested; format: cell-based; conditions: for inhibition of production of 2-butanone from 2-butanol by cell suspensions: strains tested
# Text: The following summarizes tests conducted on the optimal conditions for the production of methyl ketones from C3 -C6 sec. alcohols.
# The substrate specificity for the oxidation of C3 -C6 secondary alcohols by the strains of C1 -utilizers was studied.
# [3] = test system: purified secondary alcohol dehydrogenase (SADH); test: inhibition of purified SADH by metal-chelating agents, thioreagents, metals; format: biochemical, Pseudomonas sp. ATCC 21439; conditions: for % inhibition of SADH activity: each inhibitor at a final concentration of 1 mM, measured spectrofluorometrically
# Experimental: Secondary alcohol dehydrogenase (SADH) from an obligate methanol utilizer, Pseudomonas sp. ATCC 21439 was purified as follows. […] 0.05 M sodium phosphate buffer, pH 7.0 with 0.5 mM dithiothretol (buffer A) and were disrupted sonically (5×1 min.). The crude extract was separated by centrifugation. The crude extract was heat-treated at 50° C. in a water bath for 10 minutes. The resulting precipitate was removed by centrifugation. To the supernatant solution, 25 ml of protamine sulfate solution (2% solution in 0.1 M Tris base) was added dropwise with continuous stirring. After standing for 30 minutes, the extract was centrifuged. The supernatant solution was fractionated with solid ammonium sulfate. […] This DEAE-cellulose eluate was concentrated by ammonium sulfate fractionation. Material precipitating between 30 and 50% ammonium sulfate saturation was collected by centrifugation and dialyzed overnight against A. This fraction was further washed and filtered through an Amicon unit with XM 50 membrane. The concentrated fraction (6 ml) inside the Amicon unit was applied to an Affi-Gel Blue column (0.8 cm×18 cm) which had been equilibrated with buffer A for affinity chromatography. The column was washed overnight with buffer A (0.18 ml./min.) and then was eluted with buffer A containing 5 mM NAD. Each 1 ml. fraction was collected.
# The purified secondary alcohol dehydrogenase enzyme (SADH) may be used directly for converting C3 -C6 secondary alcohols to the corresponding methyl ketones by the procedures described above; however, a source of NAD^+ must be added to the reaction medium. One can determine the NAD-linked secondary alcohol dehydrogenase activity with a fluorescence spectrophotometer (Perkin Elmer, Model MPF 44A) by following the formation of reduced NAD (Ex 340 nm, Em 460 nm). The assay system (3 ml.) will typically contain: sodium phosphate buffer pH 7.0, 150 μmol; NAD 1.0 μmol; a given amount of enzyme preparation; and 20 μmol secondary alcohol. The reaction is started by the addition of secondary alcohol. One unit of SADH enzyme activity represents the reduction of one nmole NAD per minute.
# The effect of metal-chelating agents and thioreagents on the activity of the purified SADH enzyme were studied. […] The possibility of ethanol or n-propanol as an inhibitor was studied.
# [4] = test system: cell-free particulate fractions of methane-grown methylotrophs; test: inhibitors and electron donors of n-alkane conversion to sec. alcohols by cell-free particulate fractions; format: biochemical
# Text: The conditions for preparing the cell suspensions or the cell-free particulate fractions from methane-grown methylotroph microorganisms is the same as described above.
# [5] = test system: cell-free extracts of strain ATCC 21439; test: stoichiometry of production of 2-butanone from 2-butanol by cell-free extracts (Table IX); format: biochemical, Pseudomonas sp. ATCC 21,439; conditions: for NAD Consumed: fluorescence spectrophotometrically
# Experimental: The reaction mixtures 3 ml (1.0 mg protein) were incubated at 30°
# ^(a) Determined gas chromatographically.
# ^(b) Determined fluorescence spectrophotometrically.
# consumption of NAD was corrected.
# [6] = test system: purified secondary alcohol dehydrogenase; test: substrate specificity, electron acceptor and stoichiometry of purified yeast SADH
# [7] = test system: cell-free SADH system; test: cofactor requirement of the cell-free SADH systems; format: biochemical; conditions: cell-free systems tested
# Experimental: To prepare the cell-free secondary alcohol dehydrogenase (SADH) system, the washed cells were disrupted with a Wave Energy Ultrasonic Oscillator, Model W201 (Wave Energy System, Inc., Newtown, Pa.) and centrifuged at 20,000×g. for 30 minutes. […] The enzyme activity was measured with a fluorescence spectrophotometer (Perkin Elmer, Model MPF 44A) by following the formation of reduced NAD (EX 340 nm, Em 460 nm). The formation of reduced NAD was also followed with an absorption spectrophotometer at 340 nm. The assay system (3 ml.) contained: potassium phosphate buffer pH 7.0; 150 μmol.; NAD 1 μmol.; a given amount of enzyme preparation; and secondary alcohol 10 μmol. The reaction was started by the addition of substrate. One unit of enzyme activity represents the reduction of one μmole NAD per minute. Protein concentrations were determined by the Lowry method (J. Biol. Chem., 193: 255-275 (1951)).
# [8] = test system: Methylococcus capsulatus Texas (ATCC 19069); test: n-alkanes to methyl ketones by resting cell suspensions (Table I); format: cell-based; conditions: cells grown on methane; 30° C.
# Experimental: (§1) The pH of the nutrient medium was adjusted to 7.0 by the addition of acid or base and 50 ml. samples of the nutrient medium were charged into a plurality of 300 ml. shaker flasks. […] The isolates had been maintained on methanol (0.4% V/V) agar plates or on agar plates under an atmosphere of methane and air having a 1:1 V/V gas ratio which had been transferred every two weeks. For growth on methanol, the medium was supplemented with 0.4% methanol. For growth on methane, the gaseous phase of the inoculated flasks was replaced with a gas mixture comprised of methane and air having a ratio of 1:1 on a V/V basis. The inoculated flasks were sealed air-tight and were incubated on a rotary shaker of orbital radius 2.5 cm. at 250 rpm and at 30° C. for two days until turbidity in the medium had developed. The cells were harvested by centrifugation at 10,000×g. at 4° C. for 30 minutes. The cell pellet was washed twice with a 0.05 M phosphate buffer at a pH of 7.0 (containing 0.02 M MgCl2). The washed cells were then suspended in a 0.05 M phosphate buffer at pH 7.0.
# (§2) A 0.5 ml. sample of each washed cell suspension (2 mg. cells) was put into 10 ml. vials at 4° C. which were sealed with a rubber cap. The gaseous phase of the vials was removed with vacuum and then was replaced with a gas mixture of the substrate reactant (i.e., alkane or secondary alcohol) and oxygen at a 1:1 V/V ratio. (In the case of a liquid substrate, i.e., secondary alcohol, 10 μl of the substrate was put in the 10 ml. vials). The vials were then incubated at 30° C. on a rotary shaker at 300 rpm. Samples of product (1-3 μl) were withdrawn periodically with a microsyringe and the products were analyzed by gas chromatography (ionization flame detector column).
# [9] = test system: Methylocystis parvus OBBP (NRRL B-11,198); test: as above; format: cell-based; conditions: cells grown on methane; 30° C.
# Experimental: as §1, §2
# [10] = test system: Methylomonas methanica SI (NRRL B-11,199); test: as above; format: cell-based; conditions: cells grown on methane; 30° C.
# Experimental: as §1, §2
# [11] = test system: Methylobacterium organophilum XX; test: as above; format: cell-based; conditions: cells grown on methane; 30° C.
# Experimental: as §1, §2
# [12] = test system: Methylosinus trichosporium OB3b (NRRL B-11,196); test: as above; format: cell-based; conditions: cells grown on methane; 30° C.
# Experimental: as §1, §2
# [13] = test system: Methylobacter capsulatus Y (NRRL B-11,201); test: as above; format: cell-based; conditions: cells grown on methane; 30° C.
# Experimental: as §1, §2
# [14] = test system: Methylobacterium sp. (CRL-26, NRRL-B-11,208); test: n-alkanes to secondary alcohols by cell suspensions (Table XVI); format: cell-based; conditions: Growth Substrate Methane
# Text: (§3) Both cell suspensions (particulate fraction) and cell-free particulate fraction of methane-grown methylotroph microorganisms are capable of catalyzing the conversion of C3 -C6 n-alkanes to the corresponding alcohols including secondary alcohols. The conditions for preparing the cell suspensions or the cell-free particulate fractions from methane-grown methylotroph microorganisms is the same as described above. The cell-free particulate fraction requires the presence of oxygen and NADH as an electron donor. […] Tables XVI and XVII show the conversion of C3 -C6 n-alkanes to the corresponding secondary alcohols using cell suspensions and cell-free particulate fractions, respectively, of methane-grown methylotroph microorganisms.
# (§4) ^(a) The product secondary alcohols were identified and estimated by […]
# [15] = test system: Methylosinus trichosporium (OB3b, NRRL-B-11,196); test: as above; format: cell-based; conditions: Growth Substrate Methane
# Text: as §3, §4
# [16] = test system: Methylococcus capsulatus (Texas, ATCC 19,069); test: as above; format: cell-based; conditions: Growth Substrate Methane
# Text: as §3, §4
smiles,measurement,setting,value
O=[N+]([O-])[O-].[Ag+] [silver nitrate],inhibition of purified yeast secondary alcohol dehydrogenase activity,[1],inhibited
"c1cnc2c(c1)ccc1cccnc12 [1,10-phenanthroline]",inhibition of production of 2-butanone from 2-butanol by cell suspensions,[2],inhibited
same,inhibition of purified yeast secondary alcohol dehydrogenase activity,[1],strongly inhibited
same,% inhibition of SADH activity,[3],95%
same,inhibition of conversion of n-alkanes to sec. alcohols (words),[4],inhibited
O=S(=O)([O-])[O-].[Cu+2] [cupric sulfate],inhibition of purified yeast secondary alcohol dehydrogenase activity,[1],inhibited
"NC(=O)c1ccc[n+]([C@@H]2O[C@H](COP(=O)([O-])OP(=O)(O)OC[C@H]3O[C@@H](n4cnc5c(N)ncnc54)[C@H](O)[C@@H]3O)[C@@H](O)[C@H]2O)c1 [NAD, Nicotinamide adenine dinucleotide, reference compound]",NAD Consumed,[5]; Experiment 1: 10 min.,270 nmol
same,NAD Consumed,[5]; Experiment 2: 20 min.,540 nmol
same,ability to act as electron acceptor/carrier for the purified enzyme,[6],required
same,effectiveness as cofactor for oxidation of 2-butanol / C3-C6 secondary alcohols,[7],required
CCC(C)=O [2-butanone],further oxidation / degradation of 2-butanone by viable cell suspensions,[2]; 8 μmoles of 2-butanone added,Some enzymatic degradation; also recorded: slowly disappeared
same,inhibition of production of 2-butanone from 2-butanol by cell suspensions,[2],No product (2-butanone) inhibition was observed; also recorded: did not inhibit
same,inhibition of SADH activity,[3],inhibited
same,2-Butanone Produced,"[5]; Experiment 2: 20 min., gas chromatographically",520 nmol
N#C[S][Hg][S]C#N [mercuric thiocyanate],inhibition of purified yeast secondary alcohol dehydrogenase activity,[1],inhibited
"CCCCC [n-Pentane, n-pentane]","Conversion Rates, n-alkane to corresponding methyl ketone",[8],0.42 μmoles/hr/mg protein
same,"Conversion Rates, n-alkane to corresponding methyl ketone",[9],0.51 μmoles/hr/mg protein
same,"Conversion Rates, n-alkane to corresponding methyl ketone",[10],0.28 μmoles/hr/mg protein
same,"Conversion Rates, n-alkane to corresponding methyl ketone",[11],0.58 μmoles/hr/mg protein
same,"Conversion Rates, n-alkane to corresponding methyl ketone",[12],0.72 μmoles/hr/mg protein
same,"Conversion Rates, n-alkane to corresponding methyl ketone",[13],0.63 μmoles/hr/mg protein
same,"Conversion Rate, n-alkane to corresponding secondary alcohol",[14],0.01 μmoles/hr/^5 mg. protein
same,"Conversion Rate, n-alkane to corresponding secondary alcohol",[15],0.06 μmoles/hr/^5 mg. protein
same,"Conversion Rate, n-alkane to corresponding secondary alcohol",[16],0.032 μmoles/hr/^5 mg. protein
c1c[nH]cn1 [imidiazole],inhibition of purified yeast secondary alcohol dehydrogenase activity,[1],strongly inhibited
O=C(O)c1cc[c]([Hg+])cc1.[OH-] [p-hydroxymercuribenzoate],inhibition of purified yeast secondary alcohol dehydrogenase activity,[1],strongly inhibited
same,% inhibition of SADH activity,[3],100%
"N[C@@H](CCC(=O)N[C@@H](CS)C(=O)NCC(=O)O)C(=O)O [GSH, glutathione]",inhibition of purified yeast secondary alcohol dehydrogenase activity,[1],strongly inhibited
same,effectiveness as cofactor for oxidation of 2-butanol / C3-C6 secondary alcohols,[7],not effective
"CCCCCC [n-Hexane, n-hexane]","Conversion Rates, n-alkane to corresponding methyl ketone",[8],0.09 μmoles/hr/mg protein
same,"Conversion Rates, n-alkane to corresponding methyl ketone",[9],0.04 μmoles/hr/mg protein
same,"Conversion Rates, n-alkane to corresponding methyl ketone",[10],0.02 μmoles/hr/mg protein
same,"Conversion Rates, n-alkane to corresponding methyl ketone",[11],0.09 μmoles/hr/mg protein
same,"Conversion Rates, n-alkane to corresponding methyl ketone",[12],0.05 μmoles/hr/mg protein
same,"Conversion Rates, n-alkane to corresponding methyl ketone",[13],0.07 μmoles/hr/mg protein
same,"Conversion Rate, n-alkane to corresponding secondary alcohol",[14],0.007 μmoles/hr/^5 mg. protein
same,"Conversion Rate, n-alkane to corresponding secondary alcohol",[15],0.01 μmoles/hr/^5 mg. protein
same,"Conversion Rate, n-alkane to corresponding secondary alcohol",[16],0.01 μmoles/hr/^5 mg. protein
